Source: patent US8828695B2, “Method for producing butanol using two-phase extractive fermentation” (Butamax Advanced Biofuels LLC, priority 2008, dated 2014)

Experiments:
[1] = tested on: Saccharomyces cerevisiae BY4741; assay: Biocompatibility of solvents, shake flask studies (OD600 and glucose); format: cell-based; conditions: for Biocompatibility of the solvent (growth and glucose utilization versus control without solvent): S. cerevisiae BY4741, 25 mL solvent per 100 mL; for Glucose / OD600: 75 mL seed culture + 25 mL solvent, 30° C.
Description: The biocompatibility of each solvent was determined using shake flask studies with Saccharomyces cerevisiae BY4741 obtained from ATCC. Seed shake flasks containing 700 mL of yeast extract/peptone/dextrose (YPD) medium were inoculated with 200 μL of S. cerevisiae BY4741 inoculum and incubated overnight at 30° C. with shaking at 250 rpm until the OD600 reached about 0.5. Samples were withdrawn from the culture for measurement of OD600 using a spectrophotometer and glucose concentration using HPLC.
The resulting seed culture was divided into eight 125 mL flasks as follows. Into one flask, which served as a control, 100 mL of the seed culture was added. Into the remaining seven flasks, 75 mL of the seed culture and 25 mL of the solvent to be tested was added.

[2] = tested on: Lactobacillus plantarum strain PN0512; assay: Growth of Lactobacillus plantarum in the presence of isobutanol and oleyl alcohol (shake flask); format: cell-based
Description: The glucose consumption rate and the growth rate of Lactobacillus plantarum strain PN0512 were measured in shake flask cultures containing a high concentration of isobutanol in the presence of oleyl alcohol (Example 4) and the absence of oleyl alcohol (Example 5, Comparative).
Three seed shake flasks containing 50 mL of de Man-Rogosa-Sharpe (MRS) medium were inoculated with 200, 500, and 1000 μL, respectively, of Lactobacillus plantarum strain PN0512 inoculum (ATCC: PTA-7727, biological deposit made Jul. 12, 2006 for U.S. patent application Ser. No. 11/761,497). The flasks were incubated overnight at 30° C. with shaking at 250 rpm until the OD600 was between 2 and 5. A 1-L flask containing 600 mL of MRS medium was inoculated from one of the above seed flasks having an OD600=3 to an initial OD600=0.1 and cultivated at 30° C. with shaking at 180 rpm. After 4 to 5 hours of cultivation, the OD600 was between 0.5 and 1.0. Samples were withdrawn from each culture and the OD600 and glucose concentration were measured as described above.
To a 125 mL flask was added 100 mL of the culture from the above mentioned 1-L flask (Example 3, Comparative). To another 125 mL flask was added 75 mL of the culture and 25 mL of oleyl alcohol (i.e., 25 vol %) (Example 2). The flasks were incubated at 30° C. with shaking at 100 rpm. Samples were withdrawn for OD600 and glucose measurement. When the OD600 reached about 1.5, isobutanol was added to both flasks to a final concentration of 30 g/L of the aqueous phase. A third flask containing 75 mL of the culture and 25 vol % of oleyl alcohol, but no added isobutanol, served as a positive control. Samples were withdrawn from all flasks at various times for the determination of OD600 and glucose concentration.

[3] = tested on: Saccharomyces cerevisiae BY4741; assay: Growth of Saccharomyces cerevisiae in the presence of isobutanol and oleyl alcohol (shake flask); format: cell-based
Description: The glucose consumption rate and the growth rate of wild-type Saccharomyces cerevisiae BY4741 strain were measured in shake flask cultures containing a high concentration of isobutanol in the presence of oleyl alcohol (Example 2) and the absence of oleyl alcohol (Example 3, Comparative).
Three seed shake flasks containing 600 mL of YPD medium were inoculated with 100, 300, and 1000 μL of Saccharomyces cerevisiae BY4741 inoculum, respectively. The flasks were incubated overnight at 30° C. with shaking at 250 rpm until the OD600 reached about 0.1. Samples were withdrawn from each culture and the OD600 and glucose concentration were measured as described above.
To a 125 mL flask was added 100 mL of the culture which was derived from the 300 μL inoculum (Example 3, Comparative). To another 125 mL flask was added 75 mL of the culture and 25 mL of oleyl alcohol (i.e., 25 vol %) (Example 2). The flasks were incubated at 30° C. with shaking at 100 rpm. Samples were withdrawn for OD600 and glucose measurement. When the OD600 reached about 0.4, isobutanol was added to both flasks to a final concentration of 30 g/L of the aqueous phase. A third flask containing 75 mL of the culture and 25 vol % of oleyl alcohol, but no added isobutanol, served as a positive control. Samples were withdrawn from all flasks at various times for the determination of OD600 and glucose concentration.

[4] = Activity of the enzyme expressed from the sadB gene in cell-free extracts; format: biochemical, Achromobacter xylosoxidans; conditions: cell-free extracts of Mach1/pTrc99a::sadB, isobutyraldehyde as the standard
Description: The sadB coding region was then cloned into the vector pTrc99a (Amann et al., Gene 69: 301-315, 1988). The pCR4Blunt::sadB was digested with EcoRI, releasing the sadB fragment, which was ligated with EcoRI-digested pTrc99a to generate pTrc99a::sadB. This plasmid was transformed into E. coli Mach 1 cells and the resulting transformant was named Mach1/pTrc99a::sadB. The activity of the enzyme expressed from the sadB gene in these cells was determined to be 3.5 mmol/min/mg protein in cell-free extracts when analyzed using isobutyraldehyde as the standard.

[5] = Time 3 h after isobutanol addition
[6] = Time 4 h after isobutanol addition
[7] = Time 5 h after isobutanol addition
[8] = Time 14 h after isobutanol addition
[9] = isobutanol 30 g/L in the absence of oleyl alcohol
[10] = 25 vol % oleyl alcohol, isobutanol 30 g/L

| Molecule | Biocompatibility of the solvent (growth and glucose utilization versus control without solvent) [1] | Glucose ([1]; t = 0) [g/L] | OD600 ([1]; t = 0) | OD600 ([1]; t = 4) | Glucose ([1]; t = 2 h) [g/L] | OD600 ([1]; t = 2 h) | Glucose ([1]; t = 4 h) [g/L] | Glucose ([1]; t = 6 h) [g/L] | OD600 ([1]; t = 6 h) | Glucose ([1]; t = 24 h) [g/L] | OD600 ([1]; t = 24 h) | also measured |
| --- | --- | --- | --- | --- | --- | --- | --- | --- | --- | --- | --- | --- |
| CCCCCCCCCO [nonanol, 1-nonanol] | inhibited growth and glucose utilization | 17.5 | 0.5 | 0.7 | 17.0 | 0.5 | 16.9 | 18.1 | 0.6 | 17.8 | 0.7 |  |
| CCCCCCCC/C=C\CCCCCCCC(=O)O [oleic acid] | biocompatible | 17.5 | 0.5 | 1.7 | 19.0 | 0.8 |  | 2.2 | 2.8 | 0.0 | 4.4 |  |
| CC(C)CO [Example 5, isobutanol] |  |  |  |  |  |  |  |  |  |  |  | Glucose ([2]; Time 0 h (isobutanol addition)): 12.7 g/L; OD600 ([2]; Time 0 h (isobutanol addition)): 5.7; Glucose [2, 5]: 11.7 g/L; OD600 [2, 5]: 6.8; Glucose [2, 6]: 11.7 g/L; OD600 [2, 6]: 6.9; Glucose [2, 7]: 11.7 g/L; OD600 [2, 7]: 7.2; Glucose [2, 8]: 11.6 g/L; OD600 [2, 8]: 5.3 |
| CCCCCCCC(=O)O [octanoic acid] | inhibited growth and glucose utilization | 17.5 | 0.5 | 0.8 | 17.1 | 0.9 | 17.6 | 19.2 | 0.7 | 18.5 | 1.0 |  |
| CCCCCCCC/C=C\CCCCCCCCO [Control, oleyl alcohol] |  |  |  |  |  |  |  |  |  |  |  | Glucose ([2]; Time 0 h (isobutanol addition)): 12.9 g/L; OD600 ([2]; Time 0 h (isobutanol addition)): 5.6; Glucose [2, 5]: 7.4 g/L; OD600 [2, 5]: 8.9; Glucose [2, 6]: 4.5 g/L; OD600 [2, 6]: 10.4; Glucose [2, 7]: 1.9 g/L; OD600 [2, 7]: 14.1; Glucose [2, 8]: 0 g/L; OD600 [2, 8]: 8.8; Glucose ([3]; Time 0 h (isobutanol addition)): 19.7 g/L; OD600 ([3]; Time 0 h (isobutanol addition)): 0.4; Glucose [3, 5]: 16.0 g/L; OD600 [3, 5]: 0.6; Glucose [3, 6]: 12.9 g/L; OD600 [3, 6]: 1.7; Glucose [3, 7]: 9.2 g/L; OD600 [3, 7]: 2.5; Glucose [3, 8]: 0.3 g/L; OD600 [3, 8]: 3.3 |
| CCCCCCCCCCO [Solvent 1-decanol, 1-decanol] | inhibited growth and glucose utilization | 17.5 | 0.5 | 0.7 | 16.6 | 0.5 | 17.0 | 17.8 | 0.6 | 17.6 | 0.8 |  |
| CCCCCCCCCCCCO [Solvent 1-dodecanol, 1-dodecanol] | biocompatible | 17.5 | 0.5 | 1.6 | 15.4 | 0.9 | 11.6 | 3.9 | 2.8 | 0.0 | 4.2 |  |
| CC(C)CO [Example 3, isobutanol] |  |  |  |  |  |  |  |  |  |  |  | Glucose ([3]; Time 0 h (isobutanol addition)): 18.9 g/L; OD600 ([3]; Time 0 h (isobutanol addition)): 0.4; Glucose [3, 5]: 17.5 g/L; OD600 [3, 5]: 0.6; Glucose [3, 6]: 17.7 g/L; OD600 [3, 6]: 0.7; Glucose [3, 7]: 17.4 g/L; OD600 [3, 7]: 0.6; Glucose [3, 8]: 17.4 g/L; OD600 [3, 8]: 0.6 |
| CCCCCCCCC=O [Solvent 1-nonanal, 1-nonanal] | inhibited growth and glucose utilization | 17.5 | 0.5 | 0.7 | 16.6 | 0.7 | 17.0 | 17.8 | 0.8 | 17.6 | 1.8 |  |
| CC(C)CO [isobutanol] |  |  |  |  |  |  |  |  |  |  |  | Effect on glucose utilization and biomass growth [2, 9]: almost completely inhibited glucose utilization and biomass growth; Effect on glucose utilization and biomass growth [3, 9]: almost completely inhibited glucose utilization and biomass growth |
| CCCCCCCC/C=C\CCCCCCCCO [oleyl alcohol] | biocompatible | 17.5 | 0.5 | 2.0 | 15.3 | 1.0 | 10.4 | 3.4 | 2.4 | 0.0 | 3.5 | Effect of oleyl alcohol on isobutanol toxicity [2, 10]: mitigates the toxicity of isobutanol; Effect of oleyl alcohol on isobutanol toxicity [3, 10]: mitigates the toxicity of isobutanol |
| sadB: butanol dehydrogenase from Achromobacter xylosoxidans (protein SEQ ID NO:10), expressed in E. coli Mach1/pTrc99a::sadB (protein, Achromobacter xylosoxidans) MKALVYHGDHKISLEDKPKPTLQKPTDVVVRVLKTTICGTDLGIYKGKNPEVADGRILGHEGVGVIEEVGESVTQFKKGDKVLISCVTSCGSCDYCKKQLYSHCRDGGWILGYMIDGVQAEYVRIPHADNSLYKIPQTIDDEIAVLLSDILPTGHEIGVQYGNVQPGDAVAIVGAGPVGMSVLLTAQFYSPSTIIVIDMDENRLQLAKELGATHTINSGTENVVEAVHRIAAEGVDVAIEAVGIPATWDICQEIVKPGAHIANVGVHGVKVDFEIQKLWIKNLTITTGLVNTNTTPMLMKVASTDKLPLKKMITHRFELAEIEHAYQVFLNGAKEKAMKIILSNAGAA |  |  |  |  |  |  |  |  |  |  |  | activity of the enzyme expressed from the sadB gene [4]: 3.5 mmol/min/mg protein |
